Experimental data published in US20100222396A1 (Novartis AG, priority 2009, published 2010).

How the values were obtained:
[1] = target: T1, human orexin 2 receptor (hOx2R) (Homo sapiens, UniProt O43614); experiment: Calcium accumulation in cells (FLIPR), antagonism of orexin A, hOx2R; assay type: cell-based; settings: cells expressing human orexin 2 receptor; IC50 vs orexin A converted by Cheng and Prusoff correction
T1 construct: expressed in transfected cells
T1 sequence (O43614 1-444): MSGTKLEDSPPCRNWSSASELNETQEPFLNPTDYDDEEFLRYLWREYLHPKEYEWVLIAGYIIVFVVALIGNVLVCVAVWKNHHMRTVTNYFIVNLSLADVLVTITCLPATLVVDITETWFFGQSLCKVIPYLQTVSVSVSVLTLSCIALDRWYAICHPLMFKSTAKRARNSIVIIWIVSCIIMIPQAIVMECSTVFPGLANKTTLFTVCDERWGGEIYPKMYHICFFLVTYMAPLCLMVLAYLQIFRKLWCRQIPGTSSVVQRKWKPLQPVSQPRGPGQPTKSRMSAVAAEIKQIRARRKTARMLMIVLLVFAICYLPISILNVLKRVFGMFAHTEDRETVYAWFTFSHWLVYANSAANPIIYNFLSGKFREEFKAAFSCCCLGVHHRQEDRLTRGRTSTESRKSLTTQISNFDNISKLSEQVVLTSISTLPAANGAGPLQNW
In short: (§1)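 Serum-starved receptor-expressing cells were loaded with Fluo-4-AM (2 μM) plus probenecid (0.1 mM) in HEPES buffer, pH 7.4, with 1% BSA, and Ca2+ fluorescence was read on FLIPR. Compounds (10^−9–10^−5 M) were added first, and orexin A was added one hour later to measure antagonism.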

[2] = target: T2, human orexin 1 receptor (hOx1R) (Homo sapiens, UniProt O43613); experiment: Radioligand binding assay ([125I]orexin A competition), hOx1R; settings: CHO or HEK cell membranes, 1 h room temperature
T2 construct: expressed in transfected cells
T2 sequence (O43613 1-425): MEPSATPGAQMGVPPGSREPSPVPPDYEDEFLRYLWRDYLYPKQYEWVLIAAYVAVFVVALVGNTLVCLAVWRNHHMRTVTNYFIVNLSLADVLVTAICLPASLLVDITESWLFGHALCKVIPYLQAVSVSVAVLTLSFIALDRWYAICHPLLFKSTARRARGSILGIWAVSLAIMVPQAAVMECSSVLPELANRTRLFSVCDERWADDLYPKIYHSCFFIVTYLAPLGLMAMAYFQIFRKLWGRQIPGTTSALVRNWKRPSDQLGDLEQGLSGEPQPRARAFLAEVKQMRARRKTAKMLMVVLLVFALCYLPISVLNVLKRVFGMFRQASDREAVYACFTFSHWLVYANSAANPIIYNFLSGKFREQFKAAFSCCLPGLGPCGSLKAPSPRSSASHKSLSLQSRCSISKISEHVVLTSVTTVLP
In short: (§2)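 Membranes from CHO or HEK cells expressing the human receptor, incubated 1 h at room temperature with […] [125I]orexin A and compound in HEPES pH 7.5 buffer with BSA, MgCl2, CaCl2 and tween.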

[3] = target: T2, human orexin 1 receptor (hOx1R); experiment: Calcium accumulation in cells (FLIPR), antagonism of orexin A, hOx1R; assay type: cell-based; settings: for Kd: cells expressing human orexin 1 receptor, IC50 vs orexin A converted by Cheng and Prusoff correction; for inhibition at 10 µM: measured at a concentration of 10 μM of compound (cells marked ^a)
In short: as §1

[4] = target: T1, human orexin 2 receptor (hOx2R); experiment: Radioligand binding assay ([125I]orexin A competition), hOx2R; settings: CHO or HEK cell membranes, 1 h room temperature
In short: as §2

Row | SMILES | Kd [1] | Kd [2] | Kd [3] | Kd [4] | inhibition at 10 µM [3]
1 | CN(C(=O)c1cc(C(F)(F)F)cc(C(F)(F)F)c1)[C@H](CCNC(=O)c1ccccn1)Cc1ccccc1 [Example 5, Pyridine-2-carboxylic acid {(S)-3-[(3,5-bis-trifluoromethyl-benzoyl)-methyl-amino]-4-phenyl-butyl}-amide] | 8 nM | 999 nM | 511 nM | 18 nM | 
2 | COc1ccc(C(=O)N(C)[C@H](CCNC(=O)c2ccccn2)Cc2ccccc2)cc1 [Example 42, Pyridine-2-carboxylic acid {(S)-3-[(4-methoxy-benzoyl)-methyl-amino]-4-phenyl-butyl}-amide] | 826 nM | 1730 nM | 909 nM | 688 nM | 
3 | COc1cccc(C(=O)N(C)[C@H](CCNC(=O)c2ccccn2)Cc2ccccc2)c1 [Example 52, Pyridine-2-carboxylic acid {(S)-3-[(3-methoxy-benzoyl)-methyl-amino]-4-phenyl-butyl}-amide] | 916 nM | 2420 nM | 466 nM | 963 nM | 
4 | CCOc1cc(OCC)cc(C(=O)N(C)[C@H](CCNC(=O)c2cccn2C)Cc2ccccc2)c1 [Example 122, 1-Methyl-1H-pyrrole-2-carboxylic acid {(S)-3-[(3,5-diethoxy-benzoyl)-methyl-amino]-4-phenyl-butyl}-amide] | 24 nM | 333 nM | 773 nM | 21 nM | 
5 | CCN(C(=O)c1cc(C(F)(F)F)cc(C(F)(F)F)c1)[C@H](CCNC(=O)c1ccccn1)Cc1ccccc1 [Example 10, Pyridine-2-carboxylic acid {(S)-3-[(3,5-bis-trifluoromethyl-benzoyl)-ethyl-amino]-4-phenyl-butyl}-amide] | 27 nM | 3270 nM | 1360 nM | 59 nM | 
6 | Cc1nc(C(=O)NCC[C@H](Cc2ccccc2)N(C)C(=O)c2ccc3c(c2)OCO3)c(-c2ccccc2F)s1 [Example 83, 5-(2-Fluoro-phenyl)-2-methyl-thiazole-4-carboxylic acid {(S)-3-[(benzo[1,3]dioxole-5-carbonyl)-methyl-amino]-4-phenyl-butyl}-amide] | 3 nM | 54 nM | 42 nM | 21 nM | 
7 | Cc1nc(C(=O)NCC[C@H](Cc2ccccc2)N(C)C(=O)c2ccccc2)c(-c2ccccc2F)s1 [Example 27, 5-(2-Fluoro-phenyl)-2-methyl-thiazole-4-carboxylic acid [(S)-3-(benzoyl-methyl-amino)-4-phenyl-butyl]-amide] | 11 nM | 783 nM | 76 nM | 337 nM | 
8 | CN(C(=O)c1ccc2c(c1)OCO2)[C@H](CCNC(=O)c1cc2ccccc2[nH]1)Cc1ccccc1 [Example 14, 1H-Indole-2-carboxylic acid {(S)-3-[(benzo[1,3]dioxole-5-carbonyl)-methyl-amino]-4-phenyl-butyl}-amide] | 106 nM | 1070 nM | 609 nM | 521 nM | 
9 | CN(C(=O)c1cccc2ccn(C)c12)[C@H](CCNC(=O)c1ccccn1)Cc1ccccc1 [Example 36, 1-Methyl-1H-indole-7-carboxylic acid {(S)-1-benzyl-3-[(pyridine-2-carbonyl)-amino]-propyl}-methyl-amide] | 565 nM | 853 nM |  | 468 nM | 37%
10 | CN(C(=O)c1cccc(OC(F)(F)F)c1)[C@H](CCNC(=O)c1cccn1C)Cc1ccccc1 [Example 123, 1-Methyl-1H-pyrrole-2-carboxylic acid {(S)-3-[methyl-(3-trifluoromethoxy-benzoyl)-amino]-4-phenyl-butyl}-amide] | 7 nM | 1580 nM | 865 nM | 30 nM | 
11 | CN(C(=O)c1ccccc1)[C@H](CCNC(=O)c1cccc2cccnc12)Cc1ccccc1 [Example 49, Quinoline-8-carboxylic acid [(S)-3-(benzoyl-methyl-amino)-4-phenyl-butyl]-amide] | 414 nM | 2450 nM |  | 1070 nM | 9%
12 | CCCN(C(=O)c1cc(C(F)(F)F)cc(C(F)(F)F)c1)[C@H](CCNC(=O)c1ccccn1)Cc1ccccc1 [Example 22, Pyridine-2-carboxylic acid {(S)-3-[(3,5-bis-trifluoromethyl-benzoyl)-propyl-amino]-4-phenyl-butyl}-amide] | 105 nM | > 10000 nM | 1570 nM | 214 nM | 
13 | CCCOc1cccc(C(=O)N(C)[C@H](CCNC(=O)c2cccn2C)Cc2ccccc2)c1 [Example 126] | 56 nM | 2480 nM | 2100 nM | 87 nM | 
14 | CN(C(=O)c1cc(F)cc(F)c1)[C@H](CCNC(=O)c1ccccn1)Cc1ccccc1 [Example 34, Pyridine-2-carboxylic acid {(S)-3-[(3,5-difluoro-benzoyl)-methyl-amino]-4-phenyl-butyl}-amide] | 558 nM | 253 nM | 731 nM | 466 nM | 
15 | COc1ccc(C(=O)N(C)[C@H](CCNC(=O)c2ccccn2)Cc2ccccc2)cc1OC [Example 9, Pyridine-2-carboxylic acid {(S)-3-[(3,4-dimethoxy-benzoyl)-methyl-amino]-4-phenyl-butyl}-amide] | 145 nM | 474 nM | 1400 nM | 46 nM | 
16 | CN(C(=O)c1cccc2c1OCC2)[C@H](CCNC(=O)c1ccccn1)Cc1ccccc1 [Example 46, Pyridine-2-carboxylic acid {(8)-3-[(2,3-dihydro-benzofuran-7-carbonyl)-methyl-amino]-4-phenyl-butyl}-amide] | 1000 nM | 397 nM | 1830 nM | 870 nM | 
17 | CN(C(=O)c1ccc(Br)cc1)[C@H](CCNC(=O)c1ccccn1)Cc1ccccc1 [Example 99, Pyridine-2-carboxylic acid {(S)-3-[(4-bromo-benzoyl)-methyl-amino]-4-phenyl-butyl}-amide] | 115 nM | 1940 nM | 1110 nM | 822 nM | 
18 | CN(C(=O)c1cccc(C(F)(F)F)c1)[C@H](CCNC(=O)c1ccccn1)Cc1ccccc1 [Example 4, Pyridine-2-carboxylic acid {(S)-3-[methyl-(3-trifluoromethyl-benzoyl)-amino]-4-phenyl-butyl}-amide] | 44 nM | 112 nM | 173 nM | 14 nM | 
19 | COc1ccc(C(=O)N(C)[C@H](CCNC(=O)c2nc3ccccc3n2C)Cc2ccccc2)cc1OC [Example 80, 1-Methyl-1H-benzoimidazole-2-carboxylic acid {(S)-3-[(3,4-dimethoxy-benzoyl)-methyl-amino]-4-phenyl-butyl}-amide] | 97 nM | 59 nM | 541 nM | 98 nM | 
20 | CN(C(=O)c1ccc2[nH]ccc2c1)[C@H](CCNC(=O)c1nc2ccccc2n1C)Cc1ccccc1 [Example 81, 1-Methyl-1H-benzoimidazole-2-carboxylic acid {(S)-3-[(1H-indole-5-carbonyl)-methyl-amino]-4-phenyl-butyl}-amide] | 13 nM | 6 nM | 12 nM | 23 nM | 
21 | CN(C(=O)c1ccc2[nH]ccc2c1)[C@H](CCNC(=O)c1ccccn1)Cc1ccccc1 [Example 7, 1H-Indole-5-carboxylic acid {(S)-1-benzyl-3-[(pyridine-2-carbonyl)-amino]-propyl}-methyl-amide] | 40 nM | 7 nM | 16 nM | 41 nM | 
22 | CN(C(=O)c1ccc2ccccc2c1)[C@H](CCNC(=O)c1nc2ccccc2n1C)Cc1ccc(Cl)cc1 [Example 50, 1-Methyl-1H-benzoimidazole-2-carboxylic acid {(S)-4-(4-chloro-phenyl)-3-[methyl-(naphthalene-2-carbonyl)-amino]-butyl}-amide] | 59 nM | 783 nM | 32 nM | 1110 nM | 
